Values joined by “and” are separate entries in the source; they are usually repeats but may differ in a detail not shown here. Equal values may be shown once. Toxic doses and inconclusive results are not listed. Cut-off read from the data, not from the text of the source: active = T/C of 150% or more; inactive = T/C below 125%.
Tested on: L1210 leukemia ip in BDF1 mice, survival T/C
Test: NCI In Vivo Anticancer Drug Screen. Data for tumor model L1210 Leukemia (intraperitoneal) in B6D2F1 (BDF1) mice
Conditions: endpoint: mean survival time, higher = longer survival
How it was run: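 Survival endpoint. Drug-treated group vs vehicle group, expressed as T divided by C. Tumor passaged by transplantation.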

[1] = dose: 100.0 mg/kg/injection, schedule: Q01DX009 (ip), vehicle: Klucel (hydroxypropylcellulose) (HPC)
[2] = dose: 100.0 mg/kg/injection, schedule: Q04DX002 (ip), vehicle: Klucel (hydroxypropylcellulose) (HPC)
[3] = dose: 200.0 mg/kg/injection, schedule: Q01DX009 (ip), vehicle: Klucel (hydroxypropylcellulose) (HPC)
[4] = dose: 200.0 mg/kg/injection, schedule: Q04DX002 (ip), vehicle: Klucel (hydroxypropylcellulose) (HPC)
[5] = dose: 400.0 mg/kg/injection, schedule: Q01DX009 (ip), vehicle: Klucel (hydroxypropylcellulose) (HPC)
[6] = dose: 400.0 mg/kg/injection, schedule: Q04DX002 (ip), vehicle: Klucel (hydroxypropylcellulose) (HPC)
[7] = dose: 25.0 mg/kg/injection, schedule: Q01DX009 (ip), vehicle: Klucel (hydroxypropylcellulose) (HPC)
[8] = dose: 25.0 mg/kg/injection, schedule: Q04DX003 (ip), vehicle: Klucel (hydroxypropylcellulose) (HPC)
[9] = dose: 50.0 mg/kg/injection, schedule: Q04DX003 (ip), vehicle: Klucel (hydroxypropylcellulose) (HPC)
[10] = dose: 100.0 mg/kg/injection, schedule: Q04DX003 (ip), vehicle: Klucel (hydroxypropylcellulose) (HPC)
[11] = dose: 100.0 mg/kg/injection, schedule: Q01DX001 (ip), vehicle: saline
[12] = dose: 200.0 mg/kg/injection, schedule: Q01DX001 (ip), vehicle: saline
[13] = dose: 400.0 mg/kg/injection, schedule: Q01DX001 (ip), vehicle: saline
[14] = dose: 200.0 mg/kg/injection, schedule: Q04DX003 (ip), vehicle: Klucel (hydroxypropylcellulose) (HPC)
[15] = dose: 400.0 mg/kg/injection, schedule: Q04DX003 (ip), vehicle: Klucel (hydroxypropylcellulose) (HPC)
[16] = dose: 50.0 mg/kg/injection, schedule: Q04DX002 (ip), vehicle: Klucel (hydroxypropylcellulose) (HPC)
[17] = dose: 100.0 mg/kg/injection, schedule: Q01DX001 (ip), vehicle: carboxymethylcellulose (CMC)
[18] = dose: 200.0 mg/kg/injection, schedule: Q01DX001 (ip), vehicle: carboxymethylcellulose (CMC)

Measured: T/C

CS(=O)(=O)c1ccccc1C(=O)O
inactive: dose: 50.0 mg/kg/injection, schedule: Q01DX009 (ip), vehicle: saline 93 % of control | dose: 50.0 mg/kg/injection, schedule: Q04DX003 (ip), vehicle: acetone 105 % of control | dose: 100.0 mg/kg/injection, schedule: Q01DX001 (ip), vehicle: acetone 97 % of control | dose: 100.0 mg/kg/injection, schedule: Q01DX009 (ip), vehicle: saline 98 % of control | dose: 100.0 mg/kg/injection, schedule: Q04DX003 (ip), vehicle: acetone 105 % of control | dose: 200.0 mg/kg/injection, schedule: Q01DX001 (ip), vehicle: acetone 101 % of control | dose: 200.0 mg/kg/injection, schedule: Q01DX009 (ip), vehicle: saline 98 % of control | dose: 200.0 mg/kg/injection, schedule: Q04DX003 (ip), vehicle: acetone 103 % of control

O=C(Nc1cccc([N+](=O)[O-])c1)Nc1ccccc1F
inactive: [1] 91 % of control | [2] 108 % of control | [3] 101 % of control | [4] 91 % of control | [5] 101 % of control | [6] 94 % of control

CCCCCCCCCCCCN(CCC(=O)O)S(=O)(=O)O
inactive: dose: 12.5 mg/kg/injection, schedule: Q04DX003 (ip), vehicle: Klucel (hydroxypropylcellulose) (HPC) 101 % of control | [7] 94 % of control | [8] 98 % of control | dose: 50.0 mg/kg/injection, schedule: Q01DX009 (ip), vehicle: Klucel (hydroxypropylcellulose) (HPC) 96 % of control | [9] 102 % of control | [1] 94 % of control | [10] 97 % of control

COC1OC(CO)C(O)C1OS(C)(=O)=O (stereo not given)
inactive: [11] 101 % of control | [12] 103 % of control | [13] 101 % of control

O=c1[nH]c(=O)n(C2OC(CO)C(O)C2O)cc1CCC(F)(F)F (stereo not given)
inactive: dose: 50.0 mg/kg/injection, schedule: Q01DX005 (ip), vehicle: saline 94 % of control | dose: 100.0 mg/kg/injection, schedule: Q01DX005 (ip), vehicle: saline 109 % of control | dose: 200.0 mg/kg/injection, schedule: Q01DX005 (ip), vehicle: saline 98 % of control

CCOC(=O)C1(C(=O)OCC)NC(=O)CC1c1ccccc1 (stereo not given)
inactive: [1] 94 % of control | [10] 92 % of control | [3] 101 % of control | [14] 100 % of control | [5] 92 % of control | [15] 105 % of control

NC(CCCC(N)C(=O)O)C(=O)O (stereo not given)
inactive: dose: 12.5 mg/kg/injection, schedule: Q04DX002 (ip), vehicle: saline 103 % of control | dose: 25.0 mg/kg/injection, schedule: Q04DX002 (ip), vehicle: saline 100 % of control | [16] 96 % of control | dose: 50.0 mg/kg/injection, schedule: Q04DX002 (ip), vehicle: saline 93 % of control | [2] 101 % of control | [4] 93 % of control

CSC(=S)NNC(=O)c1cccc([N+](=O)[O-])c1
inactive: dose: 6.25 mg/kg/injection, schedule: Q04DX003 (ip), vehicle: saline sonified 95 % of control | dose: 12.5 mg/kg/injection, schedule: Q04DX003 (ip), vehicle: saline sonified 100 % of control | dose: 25.0 mg/kg/injection, schedule: Q04DX003 (ip), vehicle: saline sonified 101 % of control

O=C1NC(CCCl)C(=O)NC1CCCl (stereo not given)
inactive: dose: 50.0 mg/kg/injection, schedule: Q01DX001 (ip), vehicle: carboxymethylcellulose (CMC) 107 % of control | [17] 101 % of control | [18] 91 % of control

COc1ccc(C(=O)N/N=C/c2cccc([N+](=O)[O-])c2)cc1
inactive: [17] 98 % of control | dose: 100.0 mg/kg/injection, schedule: Q01DX009 (ip), vehicle: carboxymethylcellulose (CMC) 90 % of control and 92 % of control | dose: 100.0 mg/kg/injection, schedule: Q04DX002 (ip), vehicle: other 98 % of control | dose: 100.0 mg/kg/injection, schedule: Q04DX003 (ip), vehicle: carboxymethylcellulose (CMC) 98 % of control | [18] 97 % of control | dose: 200.0 mg/kg/injection, schedule: Q01DX009 (ip), vehicle: carboxymethylcellulose (CMC) 101 % of control and 90 % of control | dose: 200.0 mg/kg/injection, schedule: Q04DX002 (ip), vehicle: other 95 % of control | dose: 200.0 mg/kg/injection, schedule: Q04DX003 (ip), vehicle: carboxymethylcellulose (CMC) 98 % of control | dose: 400.0 mg/kg/injection, schedule: Q01DX001 (ip), vehicle: carboxymethylcellulose (CMC) 93 % of control | dose: 400.0 mg/kg/injection, schedule: Q01DX009 (ip), vehicle: carboxymethylcellulose (CMC) 95 % of control and 96 % of control | dose: 400.0 mg/kg/injection, schedule: Q04DX002 (ip), vehicle: other 95 % of control | dose: 400.0 mg/kg/injection, schedule: Q04DX003 (ip), vehicle: carboxymethylcellulose (CMC) 102 % of control

CSc1nc(N)n(C)n1
inactive: dose: 100.0 mg/kg/injection, schedule: Q04DX002 (ip), vehicle: saline 123 % of control | dose: 200.0 mg/kg/injection, schedule: Q04DX002 (ip), vehicle: saline 104 % of control | dose: 400.0 mg/kg/injection, schedule: Q04DX002 (ip), vehicle: saline 93 % of control

ClC(Cl)c1ccccc1
inactive: dose: 100.0 mg/kg/injection, schedule: Q04DX003 (ip), vehicle: saline with Tween-80 98 % of control | dose: 200.0 mg/kg/injection, schedule: Q04DX003 (ip), vehicle: saline with Tween-80 95 % of control | dose: 400.0 mg/kg/injection, schedule: Q04DX003 (ip), vehicle: saline with Tween-80 87 % of control

COc1ccc(/C=N/n2c3ccccc3c3ccccc32)cc1OCCN(C)C
inactive: dose: 3.12 mg/kg/injection, schedule: Q01DX009 (ip), vehicle: Klucel (hydroxypropylcellulose) (HPC) 96 % of control | dose: 6.25 mg/kg/injection, schedule: Q01DX009 (ip), vehicle: Klucel (hydroxypropylcellulose) (HPC) 101 % of control | dose: 12.5 mg/kg/injection, schedule: Q01DX009 (ip), vehicle: Klucel (hydroxypropylcellulose) (HPC) 97 % of control | [7] 102 % of control | [8] 98 % of control | [9] 96 % of control

Cc1cccc(NC(=O)Nc2cc(C)on2)c1
inactive: dose: 100.0 mg/kg/injection, schedule: Q01DX001 (ip), vehicle: Klucel (hydroxypropylcellulose) (HPC) 100 % of control | [1] 91 % of control | [2] 98 % of control and 102 % of control | [10] 92 % of control | dose: 200.0 mg/kg/injection, schedule: Q01DX001 (ip), vehicle: Klucel (hydroxypropylcellulose) (HPC) 95 % of control | [3] 94 % of control and 91 % of control | [4] 94 % of control and 98 % of control | [14] 93 % of control | dose: 400.0 mg/kg/injection, schedule: Q01DX001 (ip), vehicle: Klucel (hydroxypropylcellulose) (HPC) 95 % of control | [5] 100 % of control and 91 % of control | [6] 98 % of control and 109 % of control | [15] 93 % of control

C(=C/c1ccccn1)/c1ccccc1
inactive: [2] 100 % of control | [4] 103 % of control | [6] 122 % of control

CCOC(=O)C(CCSC)(CCN(C)Cc1ccccc1)C(=O)OCC
inactive: dose: 5.0 mg/kg/injection, schedule: Q01DX001 (ip), vehicle: saline 102 % of control | dose: 10.0 mg/kg/injection, schedule: Q01DX001 (ip), vehicle: saline 96 % of control | dose: 20.0 mg/kg/injection, schedule: Q01DX001 (ip), vehicle: saline 96 % of control | dose: 40.0 mg/kg/injection, schedule: Q01DX001 (ip), vehicle: saline 94 % of control | dose: 80.0 mg/kg/injection, schedule: Q01DX001 (ip), vehicle: saline 94 % of control | [11] 100 % of control

CCOc1c(Cl)c(Cl)c(Cl)c(Cl)c1Cl
inactive: [1] 91 % of control | [3] 97 % of control | [5] 91 % of control

Nc1nncc(-c2cnnc(N)n2)n1
inactive: [16] 111 % of control | [2] 104 % of control | [4] 111 % of control

COc1ccc(C(=O)N/N=C/c2ccccc2)cc1
inactive: dose: 50.0 mg/kg/injection, schedule: Q01DX001 (ip), vehicle: saline 102 % of control | [11] 98 % of control | [12] 98 % of control | [13] 98 % of control
